Reference: article PMC12583704 (Signal Transduction and Targeted Therapy, 2025)

Test: Phase 1 study NCT03594422: adverse events graded by NCI CTCAE v4.03
Type: in vivo, human
Experimental: Part 1 was a dose-escalation study to determine the recommended phase 2 dose (RP2D) in solid tumors. […] The initial design was a 3 + 3 dose escalation from 20 mg, but the protocol was amended to randomly enroll and assign patients to starting doses of 30, 40, and 50 mg on the basis of safety data acquired in the CML trial.[20] […] An interactive web response system was used for randomization. Part 2 was a nonrandomized study focusing on patients with SDH-deficient GISTs. […] On the basis of preliminary data from adult patients, adolescent patients with advanced wild-type GISTs were also included in Part 2. The dosage for adolescents was adjusted according to their body weights.
AEs were evaluated at each follow-up visit: on Days 1, 8, 15, and 22 during Cycles 1 and 2; and on Days 1 and 15 in Cycle 3 and all subsequent cycles, up to 30 days after the final dose. All AEs were graded according to the National Cancer Institute Common Terminology Criteria for Adverse Events v4.03. Clinical laboratory investigations for routine blood examinations and serum chemistry parameters were performed during every cycle (on Day 1), during Cycles 1 and 2 (on Days 8, 15, and 22), and 30 days after the last dose of treatment. Urinalysis, coagulation, cardiac troponin I/T, lipase, amylase, and electrocardiographic evaluations were conducted at baseline; during Cycles 1 and 2 (on Days 1 and 15); during Cycles 3, 5, 7, and 9; every three cycles after Cycle 9 (on Day 1); and 14 days after the last dose of treatment. All patients underwent tumor imaging for response assessment via computed tomography or magnetic resonance imaging at screening and every two cycles (8 weeks) until progression or discontinuation. Target and nontarget lesions were assessed per the Response Evaluation Criteria in Solid Tumors version 1.1 (RECIST v1.1).

Cc1ccc(C(=O)Nc2ccc(CN3CCN(C)CC3)c(C(F)(F)F)c2)cc1C#Cc1cnc2[nH]ncc2c1 [Olverembatinib, 3-[(1H-pyrazolo[3,4-b]pyridin-5-yl)ethynyl]-4-methyl-N-{4-[(4-methylpiperazin-1-yl)methyl]-3-(trifluoromethyl)phenyl]benzamide]
TEAE: Abdominal pain (20 mg (n = 3), Any grade): 0 n (%)
TEAE: Alanine aminotransferase increased (20 mg (n = 3), Any grade): 0 n (%)
TEAE: Anemia (20 mg (n = 3), Any grade): 1 (33.3) n (%)
TEAE: Aspartate aminotransferase increased (20 mg (n = 3), Any grade): 0 n (%)
TEAE: C-reactive protein increased (20 mg (n = 3), Any grade): 0 n (%)
TEAE: Constipation (20 mg (n = 3), Any grade): 2 (66.7) n (%)
TEAE: Fatigue (20 mg (n = 3), Any grade): 0 n (%)
TEAE: Hyperuricemia (20 mg (n = 3), Any grade): 2 (66.7) n (%)
TEAE: Hypoalbuminemia (20 mg (n = 3), Any grade): 0 n (%)
TEAE: Leukocyte count increased (20 mg (n = 3), Any grade): 1 (33.3) n (%)
TEAE: Melanocytic nevus (20 mg (n = 3), Any grade): 0 n (%)
TEAE: Neutrophil count increased (20 mg (n = 3), Any grade): 1 (33.3) n (%)
TEAE: Pyrexia (20 mg (n = 3), Any grade): 0 n (%)
TEAEs (20 mg (n = 3), Any grade): 3 (100.0) n (%)
TRAE: ALT increased (20 mg (n = 3), Any grade): 0 n (%)
TRAE: AST increased (20 mg (n = 3), Any grade): 0 n (%)
TRAE: Anemia (20 mg (n = 3), Any grade): 0 n (%)
TRAE: Blood creatinine increased (20 mg (n = 3), Any grade): 0 n (%)
TRAE: Constipation (20 mg (n = 3), Any grade): 1 (33.3) n (%)
TRAE: Fatigue (20 mg (n = 3), Any grade): 0 n (%)
TRAE: Hypoalbuminemia (20 mg (n = 3), Any grade): 0 n (%)
TRAE: Leukocyte count increased (20 mg (n = 3), Any grade): 1 (33.3) n (%)
TRAE: Melanocytic nevus (20 mg (n = 3), Any grade): 0 n (%)
TRAE: Neutrophil count increased (20 mg (n = 3), Any grade): 1 (33.3) n (%)
TRAE: Platelet count increased (20 mg (n = 3), Any grade): 0 n (%)
TRAE: Pyrexia (20 mg (n = 3), Any grade): 0 n (%)
TEAE: Abdominal pain (20 mg (n = 3), Grade 3-5): 0 n (%)
TEAE: Alanine aminotransferase increased (20 mg (n = 3), Grade 3-5): 0 n (%)
TEAE: Anemia (20 mg (n = 3), Grade 3-5): 0 n (%)
TEAE: Aspartate aminotransferase increased (20 mg (n = 3), Grade 3-5): 0 n (%)
TEAE: C-reactive protein increased (20 mg (n = 3), Grade 3-5): 0 n (%)
TEAE: Constipation (20 mg (n = 3), Grade 3-5): 0 n (%)
TEAE: Fatigue (20 mg (n = 3), Grade 3-5): 0 n (%)
TEAE: Hyperuricemia (20 mg (n = 3), Grade 3-5): 0 n (%)
TEAE: Hypoalbuminemia (20 mg (n = 3), Grade 3-5): 0 n (%)
TEAE: Leukocyte count increased (20 mg (n = 3), Grade 3-5): 0 n (%)
TEAE: Melanocytic nevus (20 mg (n = 3), Grade 3-5): 0 n (%)
TEAE: Neutrophil count increased (20 mg (n = 3), Grade 3-5): 0 n (%)
TEAE: Pyrexia (20 mg (n = 3), Grade 3-5): 0 n (%)
TEAEs (20 mg (n = 3), Grade 3-5): 0 n (%)
TRAE: ALT increased (20 mg (n = 3), Grade 3-5): 0 n (%)
TRAE: AST increased (20 mg (n = 3), Grade 3-5): 0 n (%)
TRAE: Anemia (20 mg (n = 3), Grade 3-5): 0 n (%)
TRAE: Blood creatinine increased (20 mg (n = 3), Grade 3-5): 0 n (%)
TRAE: Constipation (20 mg (n = 3), Grade 3-5): 0 n (%)
TRAE: Fatigue (20 mg (n = 3), Grade 3-5): 0 n (%)
TRAE: Hypoalbuminemia (20 mg (n = 3), Grade 3-5): 0 n (%)
TRAE: Leukocyte count increased (20 mg (n = 3), Grade 3-5): 0 n (%)
TRAE: Melanocytic nevus (20 mg (n = 3), Grade 3-5): 0 n (%)
TRAE: Neutrophil count increased (20 mg (n = 3), Grade 3-5): 0 n (%)
TRAE: Platelet count increased (20 mg (n = 3), Grade 3-5): 0 n (%)
TRAE: Pyrexia (20 mg (n = 3), Grade 3-5): 0 n (%)
TEAE: Abdominal pain (30 mg (n = 15), Any grade): 5 (33.3) n (%)
TEAE: Alanine aminotransferase increased (30 mg (n = 15), Any grade): 6 (40.0) n (%)
TEAE: Anemia (30 mg (n = 15), Any grade): 8 (53.3) n (%)
TEAE: Aspartate aminotransferase increased (30 mg (n = 15), Any grade): 7 (46.7) n (%)
TEAE: C-reactive protein increased (30 mg (n = 15), Any grade): 3 (20.0) n (%)
TEAE: Constipation (30 mg (n = 15), Any grade): 5 (33.3) n (%)
TEAE: Fatigue (30 mg (n = 15), Any grade): 4 (26.7) n (%)
TEAE: Hyperuricemia (30 mg (n = 15), Any grade): 7 (46.7) n (%)
TEAE: Hypoalbuminemia (30 mg (n = 15), Any grade): 4 (26.7) n (%)
TEAE: Leukocyte count increased (30 mg (n = 15), Any grade): 8 (53.3) n (%)
TEAE: Melanocytic nevus (30 mg (n = 15), Any grade): 3 (20.0) n (%)
TEAE: Neutrophil count increased (30 mg (n = 15), Any grade): 6 (40.0) n (%)
TEAE: Pyrexia (30 mg (n = 15), Any grade): 5 (33.3) n (%)
TEAEs (30 mg (n = 15), Any grade): 15 (100.0) n (%)
TRAE: ALT increased (30 mg (n = 15), Any grade): 4 (26.7) n (%)
TRAE: AST increased (30 mg (n = 15), Any grade): 5 (33.3) n (%)
TRAE: Anemia (30 mg (n = 15), Any grade): 1 (6.7) n (%)
TRAE: Blood creatinine increased (30 mg (n = 15), Any grade): 3 (20.0) n (%)
TRAE: Constipation (30 mg (n = 15), Any grade): 4 (26.7) n (%)
TRAE: Fatigue (30 mg (n = 15), Any grade): 4 (26.7) n (%)
TRAE: Hypoalbuminemia (30 mg (n = 15), Any grade): 4 (26.7) n (%)
TRAE: Leukocyte count increased (30 mg (n = 15), Any grade): 6 (40.0) n (%)
TRAE: Melanocytic nevus (30 mg (n = 15), Any grade): 3 (20.0) n (%)
TRAE: Neutrophil count increased (30 mg (n = 15), Any grade): 6 (40.0) n (%)
TRAE: Platelet count increased (30 mg (n = 15), Any grade): 1 (6.7) n (%)
TRAE: Pyrexia (30 mg (n = 15), Any grade): 1 (6.7) n (%)
TEAE: Abdominal pain (30 mg (n = 15), Grade 3-5): 1 (6.7) n (%)
TEAE: Alanine aminotransferase increased (30 mg (n = 15), Grade 3-5): 0 n (%)
TEAE: Anemia (30 mg (n = 15), Grade 3-5): 1 (6.7) n (%)
TEAE: Aspartate aminotransferase increased (30 mg (n = 15), Grade 3-5): 0 n (%)
TEAE: C-reactive protein increased (30 mg (n = 15), Grade 3-5): 0 n (%)
TEAE: Constipation (30 mg (n = 15), Grade 3-5): 0 n (%)
TEAE: Fatigue (30 mg (n = 15), Grade 3-5): 0 n (%)
TEAE: Hyperuricemia (30 mg (n = 15), Grade 3-5): 1 (6.7) n (%)
TEAE: Hypoalbuminemia (30 mg (n = 15), Grade 3-5): 0 n (%)
TEAE: Leukocyte count increased (30 mg (n = 15), Grade 3-5): 0 n (%)
TEAE: Melanocytic nevus (30 mg (n = 15), Grade 3-5): 0 n (%)
TEAE: Neutrophil count increased (30 mg (n = 15), Grade 3-5): 0 n (%)
TEAE: Pyrexia (30 mg (n = 15), Grade 3-5): 0 n (%)
TEAEs (30 mg (n = 15), Grade 3-5): 5 (33.3) n (%)
TRAE: ALT increased (30 mg (n = 15), Grade 3-5): 0 n (%)
TRAE: AST increased (30 mg (n = 15), Grade 3-5): 0 n (%)
TRAE: Anemia (30 mg (n = 15), Grade 3-5): 0 n (%)
TRAE: Blood creatinine increased (30 mg (n = 15), Grade 3-5): 0 n (%)
TRAE: Constipation (30 mg (n = 15), Grade 3-5): 0 n (%)
TRAE: Fatigue (30 mg (n = 15), Grade 3-5): 0 n (%)
TRAE: Hypoalbuminemia (30 mg (n = 15), Grade 3-5): 0 n (%)
TRAE: Leukocyte count increased (30 mg (n = 15), Grade 3-5): 0 n (%)
TRAE: Melanocytic nevus (30 mg (n = 15), Grade 3-5): 0 n (%)
TRAE: Neutrophil count increased (30 mg (n = 15), Grade 3-5): 0 n (%)
TRAE: Platelet count increased (30 mg (n = 15), Grade 3-5): 0 n (%)
TRAE: Pyrexia (30 mg (n = 15), Grade 3-5): 0 n (%)
TEAE: Abdominal pain (40 mg (n = 32), Any grade): 7 (21.9) n (%)
TEAE: Alanine aminotransferase increased (40 mg (n = 32), Any grade): 13 (40.6) n (%)
TEAE: Anemia (40 mg (n = 32), Any grade): 14 (43.8) n (%)
TEAE: Aspartate aminotransferase increased (40 mg (n = 32), Any grade): 14 (43.8) n (%)
TEAE: C-reactive protein increased (40 mg (n = 32), Any grade): 8 (25.0) n (%)
TEAE: Constipation (40 mg (n = 32), Any grade): 13 (40.6) n (%)
TEAE: Fatigue (40 mg (n = 32), Any grade): 11 (34.4) n (%)
TEAE: Hyperuricemia (40 mg (n = 32), Any grade): 17 (53.1) n (%)
TEAE: Hypoalbuminemia (40 mg (n = 32), Any grade): 5 (15.6) n (%)
TEAE: Leukocyte count increased (40 mg (n = 32), Any grade): 15 (46.9) n (%)
TEAE: Melanocytic nevus (40 mg (n = 32), Any grade): 10 (31.3) n (%)
TEAE: Neutrophil count increased (40 mg (n = 32), Any grade): 12 (37.5) n (%)
TEAE: Pyrexia (40 mg (n = 32), Any grade): 17 (53.1) n (%)
TEAEs (40 mg (n = 32), Any grade): 32 (100.0) n (%)
TRAE: ALT increased (40 mg (n = 32), Any grade): 11 (34.4) n (%)
TRAE: AST increased (40 mg (n = 32), Any grade): 12 (37.5) n (%)
TRAE: Anemia (40 mg (n = 32), Any grade): 4 (12.5) n (%)
TRAE: Blood creatinine increased (40 mg (n = 32), Any grade): 5 (15.6) n (%)
TRAE: Constipation (40 mg (n = 32), Any grade): 13 (40.6) n (%)
TRAE: Fatigue (40 mg (n = 32), Any grade): 9 (28.1) n (%)
TRAE: Hypoalbuminemia (40 mg (n = 32), Any grade): 3 (9.4) n (%)
TRAE: Leukocyte count increased (40 mg (n = 32), Any grade): 12 (37.5) n (%)
TRAE: Melanocytic nevus (40 mg (n = 32), Any grade): 8 (25.0) n (%)
TRAE: Neutrophil count increased (40 mg (n = 32), Any grade): 9 (28.1) n (%)
TRAE: Platelet count increased (40 mg (n = 32), Any grade): 4 (12.5) n (%)
TRAE: Pyrexia (40 mg (n = 32), Any grade): 14 (43.8) n (%)
TEAE: Abdominal pain (40 mg (n = 32), Grade 3-5): 0 n (%)
TEAE: Alanine aminotransferase increased (40 mg (n = 32), Grade 3-5): 0 n (%)
TEAE: Anemia (40 mg (n = 32), Grade 3-5): 2 (6.3) n (%)
TEAE: Aspartate aminotransferase increased (40 mg (n = 32), Grade 3-5): 0 n (%)
TEAE: C-reactive protein increased (40 mg (n = 32), Grade 3-5): 0 n (%)
